Here are results for three compounds from PMC12467903, “A Sensitive Electrochemical Cholinesterase-Inhibiting Biosensor for Organophosphorus Pesticides Based on Ti3C2TX MXene Quantum Dots” (Biosensors, 2025).

Holding throughout (assay type): biochemical
In assay [1] the target is T1, acetylcholinesterase (AChE) (Electrophorus electricus, UniProt O42275). In words: DPV peak current suppression with immobilized AChE ([…] at […]).
Assay [2] deals with T1, acetylcholinesterase (AChE). In words: electrochemical detection of thiocholine from hydrolysis by immobilized AChE.
For assay [3] the target is unchanged. The assay can be described thus: electrochemical (DPV/EIS/CV) inhibition of immobilized AChE, acetylthiocholine substrate.

T1 sequence (O42275 24-633): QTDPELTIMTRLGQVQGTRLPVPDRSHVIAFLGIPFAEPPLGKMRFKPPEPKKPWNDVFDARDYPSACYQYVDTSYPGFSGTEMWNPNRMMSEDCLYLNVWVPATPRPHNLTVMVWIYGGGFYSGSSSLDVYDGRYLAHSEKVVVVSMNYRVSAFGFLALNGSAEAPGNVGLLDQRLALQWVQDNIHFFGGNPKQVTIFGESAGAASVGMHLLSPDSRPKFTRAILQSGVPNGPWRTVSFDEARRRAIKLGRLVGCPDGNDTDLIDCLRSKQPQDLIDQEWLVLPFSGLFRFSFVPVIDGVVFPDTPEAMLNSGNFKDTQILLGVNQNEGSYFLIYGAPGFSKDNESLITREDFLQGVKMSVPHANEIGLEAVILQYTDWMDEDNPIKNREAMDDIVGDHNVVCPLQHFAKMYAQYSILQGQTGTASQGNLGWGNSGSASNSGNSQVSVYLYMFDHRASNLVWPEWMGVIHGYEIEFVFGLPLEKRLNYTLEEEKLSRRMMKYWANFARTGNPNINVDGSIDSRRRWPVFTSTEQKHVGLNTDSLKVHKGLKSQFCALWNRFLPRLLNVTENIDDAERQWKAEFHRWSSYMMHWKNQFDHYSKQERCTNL

`COP(=O)(NC(C)=O)SC` (stereo not drawn) [ACE, acephate]: the “percent DPV peak current suppression” value in assay [1] came to 37% at 2 nM. On to `CC(=O)SCC[N+](C)(C)C` [ACTI, acetylthiocholine iodide], for which the “electrochemical detection of thiocholine from hydrolysis by immobilized AChE” value in assay [2] is recorded as “In the absence of OP, AChE efficiently hydrolyzed ACTI into electroactive thiocholine (TCh)”. Take `CCOP(=S)(OCC)Oc1nc(Cl)c(Cl)cc1Cl` [CPS, chlorpyrifos]: the Ki in assay [3] was 62 nM.

Usually Ki stands for a measure of affinity in units of concentration, obtained from inhibition or displacement.
